Each structure is given as a SMILES string. Where two headings read alike, the source gives them in different places.

From patent US11104657B2, “Notch inhibitors for use in the treatment of t-cell acute lymphoblastic leukemia” (UNIVERSITÀ DEGLI STUDI DI ROMA “LA SAPIENZA”, priority 2016, dated 2021) come the findings set out here.

One assay relates to DND41 cells. The experiment in a line: MTS cell proliferation assay (IG50), DND41. Type of assay: cell-based, human. The following applies: for IC50: Homo sapiens. How it is done: In order to evaluate the biological implications of the compounds, their effect on cell proliferation/vitality was tested by determining the relative concentrations of growth inhibition (IG50) by means of the MTS cellular assay.
(§1) The cell lines DND41 (ACC 525, DSMZ, Braunschweig, GERMANY), KOPTK1 (RRID: CVCL_4965) were maintained in culture in RPMI-1640 (Gibco, Carlsbad, Calif., USA) with 10% fetal bovine serum. TALL-1 cells (ACC-521: DSMZ, Braunschweig, GERMANY) were cultured in RPMI-1640 (Gibco, Carlsbad, Calif., USA) supplemented with 20% fetal bovine serum, while HaCaT cells (ACC-771: DSMZ, Braunschweig, GERMANY) were maintained in Eagle's culture medium according to Dulbecco (Gibco, Carlsbad, Calif., USA) containing 10% fetal bovine serum. Cells were treated with the naturally-occurring compounds A-H or with compounds 1-17 for times and concentrations indicated in the text.
Cells were seeded in 96-well plates with a density of 5×10^5 cells/ml (5×10^4 cells per well) and treated for the times and the concentrations of the various compounds, as indicated in the text.
(§2) All treatments were carried out in triplicate, including control treatments. All treatment reactions contained a final concentration of 1% DMSO (D5879; Sigma-Aldrich, St Louis, Mo., USA). To quantify vitality, cells were assayed by the MTS CellTiter 96® AQueous One Solution Cell Proliferation Assay (G3580; Promega, Madison, Wis., USA). Absorbance was detected at 490 nm using the GloMax Multidetection System instrument (Promega, Madison, Wis., USA). Data were collected in the form of absorbance units (ABSs) and standardized to obtain the proliferation rate (MTS) through the equation: % cell proliferation=(ABScell culture+compound−ABSculture medium+compound/(ABScell culture+DMSO−ABSculture medium+DMSO)×100.
The 50% inhibition concentration was calculated using the GraphPad Prism software program (GraphPad Software Inc., La Jolla, Calif., USA).

The next assay deals with KOPTK1 cells. The experiment in a line: MTS cell proliferation assay, KOPTK1. Type of assay: cell-based. The conditions noted are these: Homo sapiens. The procedure: as §1, with “text. […]” for “text.”
as §2, with “All treatment reactions contained a final concentration of 1% DMSO (D5879; Sigma-Aldrich, St Louis, Mo., USA).” left out, “medium+DMSO)×100. […]” for “medium+DMSO)×100.”

Another assay relates to TALL-1 cells. In words: MTS cell proliferation assay, TALL-1. The following applies: Homo sapiens. It is filed as cell-based. The procedure:
as §1, with “text. […]” for “text.”
as §2, with “All treatment reactions contained a final concentration of 1% DMSO (D5879; Sigma-Aldrich, St Louis, Mo., USA).” left out, “medium+DMSO)×100. […]” for “medium+DMSO)×100.”

In the next assay the test system is HaCaT keratinocytes. In words: MTS cell proliferation assay, HaCaT keratinocytes. Type of assay: cell-based. The conditions noted are these: Homo sapiens; immortalized non-tumor HaCaT keratinocytes. How it is done: as §1, with “text. […]” for “text.”
as §2, with “All treatment reactions contained a final concentration of 1% DMSO (D5879; Sigma-Aldrich, St Louis, Mo., USA).” left out, “medium+DMSO)×100. […]” for “medium+DMSO)×100.”
For orientation: Tetrazolium assays rely on reduction of a dye to a coloured formazan, in cell work by metabolically active cells.

For assay [1], the system named is activated domain of Notch1 in HaCaT cells. In words: Western blot of N1VAL expression in HaCaT cells. It is filed as cell-based. The conditions noted are these: 36 hours. The procedure:
Laemmli Sample Buffer (161-0737; Bio-Rad Laboratories Inc., Hercules, Calif., USA) was added to each cell pellet. Cells were lysed by ultrasonic sonication and to each mixture 5% 2-mercaptoethanol (161-0710; Bio-Rad Laboratories Inc., Hercules, Calif., USA) was added. Samples were denatured at 100° C. for 5 min and protein mixtures were separated by means of Sodium Dodecyl Sulphate-Polyacrylamide Gel Electrophoresis using 8% acrylamide and transferred onto nitrocellulose membranes. After transfer, the membranes pre-saturated in 5% Blot Dry Fat Milk (1706404; Bio-Rad Laboratories Inc., Hercules, Calif., USA) were incubated for 16 hours at +4° C. with the following primary antibodies diluted at 1:1000 in 5% Dry Fat Milk (1706404; Bio-Rad Laboratories Inc., Hercules, Calif., USA): Notch1Val1744 (2421; Cell Signaling Technology, Beverly, Mass., USA), Notch3 (2889; Cell Signaling Technology, Beverly, Mass., USA) and β-actin (sc-47778; Santa Cruz Biotechnology, Santa Cruz, Calif., USA). Subsequently, filters were incubated for 1 hour at room temperature with the following secondary antibodies: anti-rabbit (sc-2004, Santa Cruz Biotechnology, Santa Cruz, Calif., USA) or anti-mouse (sc-2005, Santa Cruz Biotechnology, Santa Cruz, Calif., USA). […]
In general terms: Immunoblotting shows a protein as a band on a membrane.

Assay [2] has as its system Notch signaling (N1VAL, N3ICD) in DND41 cells. The experiment in a line: Western blot of N1VAL and N3ICD expression in DND41 cells. It is filed as cell-based, human. The procedure:
In order to identify new naturally-occurring molecular agents able to modulate Notch signaling, the effects on protein expression of the activated domain of Notch1 (N1VAL), and of the intracellular domain of Notch3 (N3ICD), were evaluated in DND41 cells through
Western blotting assays, following treatment for 36 hours with increasing concentrations (0, 1, 5, 10, 20, 50 μM) of the eight molecules (A-H) previously selected. Functional biochemical screening was performed on T-ALL DND41 cells because they are notoriously sensitive to the block of Notch signaling, and characterized by the constitutive and ligand-independent activation of the Notch1 pathway and by the high expression of Notch3. This makes this cell line a useful experimental model for screening putative Notch inhibitors.
In order to investigate the activity and selectivity of action of the 12 synthetic derivatives of butein, and following the screening scheme described in the first design phase, the efficacy of these molecules was analyzed by verifying the effects of 36 hours of treatment at increasing doses on the activation of Notch signaling and on the proliferation in DND41 cells.
Laemmli Sample Buffer (161-0737; Bio-Rad Laboratories Inc., Hercules, Calif., USA) was added to each cell pellet. Cells were lysed by ultrasonic sonication and to each mixture 5% 2-mercaptoethanol (161-0710; Bio-Rad Laboratories Inc., Hercules, Calif., USA) was added. Samples were denatured at 100° C. for 5 min and protein mixtures were separated by means of Sodium Dodecyl Sulphate-Polyacrylamide Gel Electrophoresis using 8% acrylamide and transferred onto nitrocellulose membranes. After transfer, the membranes pre-saturated in 5% Blot Dry Fat Milk (1706404; Bio-Rad Laboratories Inc., Hercules, Calif., USA) were incubated for 16 hours at +4° C. with the following primary antibodies diluted at 1:1000 in 5% Dry Fat Milk (1706404; Bio-Rad Laboratories Inc., Hercules, Calif., USA): Notch1Val1744 (2421; Cell Signaling Technology, Beverly, Mass., USA), Notch3 (2889; Cell Signaling Technology, Beverly, Mass., USA) and β-actin (sc-47778; Santa Cruz Biotechnology, Santa Cruz, Calif., USA). Subsequently, filters were incubated for 1 hour at room temperature with the following secondary antibodies: anti-rabbit (sc-2004, Santa Cruz Biotechnology, Santa Cruz, Calif., USA) or anti-mouse (sc-2005, Santa Cruz Biotechnology, Santa Cruz, Calif., USA). Chemiluminescence signal detection was performed using the ECL Advanced Detection System substrate (RPN2135; E Healthcare UK Limited, Buckinghamshire, UK).

The mark [3] stands for this setting: 36-hour treatments in DND41 cells, mean of triplicate experiments ± S.D., Table 2, read-out: IG50 ± S.D.
The mark [4] stands for this setting: DND41 cells, MTS assay, 36 hours of treatment, read-out: IG50 (growth inhibition).
Setting [5] is: 36-hour treatments in DND41 cells, mean of triplicate experiments ± S.D., Table 1, read-out: IG50 S.D.

Consider `COc1ccc(C(=O)/C=C/c2ccc(O)cc2)c(O)c1` [Compound 8, 2′,4-dihydroxy-4′-methoxychalcone], for which the IC50 in the assay on DND41 cells (setting [3]) turned out to be 1.92 ± 1.04 µM; in the assay with DND41 cells (setting [4]), 1.92 µM; in the assay on KOPTK1 cells, 0.91 ± 0.06 µM; in the assay with TALL-1 cells, 0.29 ± 0.02 µM; in the assay with HaCaT keratinocytes, 48.6 ± 8.06 µM. Also, in assay [1], the “concentration from which expression of the activated domain of Notch1 is significantly reduced” value is no less than 2.5 µM.

On to `CC(C)=CCc1c(O)ccc(C(=O)/C=C/c2ccc(O)cc2)c1O` [Compound B, (E)-1-[2,4-dihydroxy-3-(3-methylbut-2-enyl)phenyl]-3-(4-hydroxyphenyl) prop-2-en-1-one, reference compound], for which the IC50 in the assay with DND41 cells (setting [5]) was determined as 13.9 µM; in the assay with DND41 cells (setting [4]) it was 13.9 ± 2.7 µM. Besides, the “inhibitory activity of Notch” value in assay [2] (screening carried out by the present inventors) is “did not show any inhibitory activity”.

In the case of `COc1ccc(C(=O)/C=C/c2ccc(O)cc2)cc1` [Compound 17, 4-hydroxy-4′-methoxychalcone], the IC50 in the assay on DND41 cells (setting [3]) was 19.5 ± 0.56 µM; with DND41 cells (setting [4]), greater than 13 µM. Moreover, in assay [2] (DND41 cells, 36 hours, Western blot), the “concentration at which expression of N1VAL and N3ICD is decreased” value is 2.5 µM.

For `CC(C)(O)C1Cc2c(ccc3ccc(=O)oc23)O1` (stereo in doubt) [Compound E, (8R)-8-(2-hydroxypropane-2-yl)-8,9-dihydrofuran[2,3-h]chromen-2-one, reference compound], in the assay with DND41 cells (DND41 cells, doses of up to 50 μM), the “effect on cell proliferation” value is reported as “do not significantly affect cell proliferation”. For the same compound, the IC50 in the assay with DND41 cells (setting [5]) is greater than 50 µM. The “effect on the expression of N1VAL” value in assay [2] (DND41 cells, 36 hours, 0-50 μM, Western blot) is recorded as “did not significantly modulate”.
